From US20260240832A1, “USE OF NITROXOLINE COMPOUND IN ENHANCING EFFECT OF ANTIBACTERIAL AGENT” (Jiangsu Yahong Meditech Co., Ltd., priority 2022, published 2026)
Where two headings read alike, the source gives them in different places. Values belong to the compound of their own block, whether it stands above or below them.

Columns and labels:
Assay type in all cases: cell-based
[1] = test system: carbapenem-resistant Acinetobacter baumannii; assay: Chessboard microbroth dilution MIC/FIC, compound 1 in combination with polymyxin; settings: for MIC: Acinetobacter baumannii, read-out: Compound 1 MIC alone; for Compound 1 MIC in combination: with polymyxin
Excerpt: This experiment is designed to determine the minimum inhibitory concentration (MIC) of compound 1 in combination with polymyxin against carbapenem-resistant Acinetobacter baumannii and to calculate the fractional inhibitory concentration (FIC) index.
Test bacteria: 10 strains of carbapenem-resistant Acinetobacter baumannii are clinically isolated strains, and are provided by Shanghai Junji Medical Laboratory Co., Ltd.
(§1) According to the recommendation of the Clinical and Laboratory Standards Institute (CLSI), the microbroth dilution method designed by the chessboard method was used to determine the minimum inhibitory concentration (MIC) of compound 1 in combination with polymyxin against the above strains, and the fractional inhibitory concentration (FIC) index was calculated.
Compound 1 was dissolved in dimethyl sulfoxide to obtain a stock solution I with a concentration of 51200 mg/L. The stock solution I was subjected to 1:1 gradient dilution with dimethyl sulfoxide to obtain a dilution solution with a concentration range of 51200 to 25 mg/L. The corresponding concentrations were added to sterile water for 100-fold dilution to obtain working solution I with a concentration range of 512 to 0.25 mg/L.
Polymyxin was dissolved in sterile water to obtain a stock solution with a concentration of 5120 mg/L. The polymyxin stock solution was subjected to 1:1 gradient dilution with sterile water to obtain a working solution II with a concentration range of 512 to 0.25 mg/L.
(§2) According to the method in Example 1, a drug sensitive plate was prepared with working solution I and working solution II, and the specific process will not be repeated here.
(§3) (2) The culture medium of the bacterial solution: Cation-Adjusted Mueller-Hinton Broth (CAMHB), a product of BBL, USA, batch number 9015952.
(§4) (3) Formulation method of bacterial solution: According to the direct colony suspension method, the test bacteria cultured overnight were prepared into a 0.5 McFarland turbidity tube using physiological saline. Then, the resulting solution was dilute 100 times with the above culture medium. 100 μL of the resulting bacterial solution was mixed well with the solution (100 μL) in each well of the drug sensitivity plate, and the final inoculation amount was 10^5 CFU/mL.
(§5) (4) Culture conditions: Culturing at 35±2° C. for 20 hours in air.
(1) The experimental results were determined according to the standard of CLSI 2020 M100 30th edition.
(§6) wherein: FIC≤0.5 indicates synergistic effect; 0.5<FIC≤1.0 indicates additive effect; 1<FIC≤2.0 indicates irrelevant effect; and FIC>2 indicates antagonistic effect.

[2] = test system: drug-resistant Escherichia coli II (drug-resistant Escherichia coli 1864); assay: Chessboard microbroth dilution MIC/FIC, compound A in combination with meropenem; settings: strain 1864
Excerpt: (§7) This experiment is designed to determine the minimum inhibitory concentration (MIC) of compound A in combination with meropenem against drug-resistant Escherichia coli I (a strain resistant to carbapenem antibiotics) and drug-resistant Escherichia coli II (a strain resistant to fluoroquinolone antibiotics, non-fluoroquinolone antibiotics, aminoglycoside antibiotics, glycopeptide antibiotics and carbapenem antibiotics), and to calculate the fractional inhibitory concentration (FIC) index.
(§8) 1 strain of drug-resistant Escherichia coli II, namely drug-resistant Escherichia coli 1864, is provided by the School of Pharmacy of Fudan University. This strain is resistant to fluoroquinolone antibiotics (such as levofloxacin), non-fluoroquinolone antibiotics (such as nalidixic acid, nemofloxacin), aminoglycoside antibiotics (such as gentamicin), glycopeptide antibiotics (such as vancomycin) and carbapenem antibiotics (such as meropenem).
as §1, with “A” for “1”, “meropenem” for “polymyxin”
(§9) Compound A was dissolved in dimethyl sulfoxide to obtain a stock solution I with a concentration of 1280 mg/L. The stock solution I was diluted to 512 mg/L with sterile water to obtain a gradient dilution first tube solution I. The gradient dilution first tube solution I was subjected to 1:1 gradient dilution with sterile water to obtain a working solution I with a gradient range of 512 to 0.25 mg/L.
(§10) Meropenem was dissolved in sterile water to obtain a stock solution II with a concentration of 5120 mg/L. The stock solution II was diluted to 1024 mg/L with sterile water to obtain a gradient dilution first tube solution II. The gradient dilution first tube solution II was subjected to 1:1 gradient dilution with sterile water to obtain a working solution II with a gradient range of 1024 to 0.5 mg/L.
as §2, §3, §4, §5
(§11) (1) The experimental results were determined according to the standard of CLSI 2019 M100 29th edition.
as §6

[3] = test system: drug-resistant Escherichia coli I (a strain resistant to carbapenem antibiotics); assay: as above; settings: for MIC: Escherichia coli, read-out: Meropenem MIC alone; for Meropenem MIC in combination: with compound A
Excerpt: as §7
3 strains of drug-resistant Escherichia coli I, namely drug-resistant Escherichia coli 18-W09-093, drug-resistant Escherichia coli 18-W37-025, and drug-resistant Escherichia coli 18-W37-032, are provided by Shanghai Junji Medical Laboratory Co., Ltd. These 3 strains are all resistant to carbapenem antibiotics (e.g., meropenem).
as §1, with “A” for “1”, “meropenem” for “polymyxin”
as §9, §10, §2, §3, §4, §5, §11, §6

[4] = test system: drug-resistant Escherichia coli 1864; assay: MIC of antibiotics against drug-resistant Escherichia coli II (resistance profile of the strain); settings: drug-resistant Escherichia coli 1864; read-out: MIC
Excerpt: as §8

[5] = strain 18-J11-001, compound 1 + polymyxin
[6] = strain 18-J11-002, compound 1 + polymyxin
[7] = strain 18-J11-034, compound 1 + polymyxin
[8] = strain 18-J11-097, compound 1 + polymyxin
[9] = strain 18-J15-030, compound 1 + polymyxin
[10] = strain 18-J21-095, compound 1 + polymyxin
[11] = strain 18-J24-015, compound 1 + polymyxin
[12] = strain 18-J24-033, compound 1 + polymyxin
[13] = strain 18-J40-021, compound 1 + polymyxin
[14] = strain 18-J51-052, compound 1 + polymyxin

MIC ([1]; strain 18-J11-001): 8 µg/mL
MIC ([1]; strain 18-J11-002): 4 µg/mL
MIC ([1]; strain 18-J11-034): 4 µg/mL
MIC ([1]; strain 18-J11-097): 4 µg/mL
MIC ([1]; strain 18-J15-030): 16 µg/mL
MIC ([1]; strain 18-J21-095): 8 µg/mL
MIC ([1]; strain 18-J24-015): 8 µg/mL
MIC ([1]; strain 18-J24-033): 4 µg/mL
MIC ([1]; strain 18-J40-021): 8 µg/mL
MIC ([1]; strain 18-J51-052): 4 µg/mL
change of the MIC of polymyxin by the combination ([1]; compound 1 + polymyxin): significantly reduce
Compound 1 MIC in combination ([1]; strain 18-J11-001): 0.5 µg/mL
Compound 1 MIC in combination ([1]; strain 18-J11-002): 2 µg/mL
Compound 1 MIC in combination ([1]; strain 18-J11-034): 1 µg/mL
Compound 1 MIC in combination ([1]; strain 18-J11-097): 0.5 µg/mL
Compound 1 MIC in combination ([1]; strain 18-J15-030): 1 µg/mL
Compound 1 MIC in combination ([1]; strain 18-J21-095): 4 µg/mL
Compound 1 MIC in combination ([1]; strain 18-J24-015): 1 µg/mL
Compound 1 MIC in combination ([1]; strain 18-J24-033): 1 µg/mL
Compound 1 MIC in combination ([1]; strain 18-J40-021): 1 µg/mL
Compound 1 MIC in combination ([1]; strain 18-J51-052): 2 µg/mL
SMILES: O=[N+]([O-])c1c(Br)c(Cl)c2cccnc2c1O [Compound 1, 6-bromo-5-chloro-7-nitroquinolin-8-ol]
effect of the combination (summary of Table 2) ([1]; compound 1 + polymyxin): synergistic effect (FIC≤0.5 indicates synergistic effect)
FIC index [1, 5]: 0.303
Results [1, 5]: Synergistic
FIC index [1, 6]: 0.740
Results [1, 6]: Additive
FIC index [1, 7]: 0.500
Results [1, 7]: Synergistic
FIC index [1, 8]: 0.365
Results [1, 8]: Synergistic
FIC index [1, 9]: 0.313
Results [1, 9]: Synergistic
FIC index [1, 10]: 0.740
Results [1, 10]: Additive
FIC index [1, 11]: 0.375
Results [1, 11]: Synergistic
FIC index [1, 12]: 0.500
Results [1, 12]: Synergistic
FIC index [1, 13]: 0.250
Results [1, 13]: Synergistic
FIC index [1, 14]: 0.750
Results [1, 14]: Additive

MIC ([2]; Escherichia coli, read-out: Meropenem MIC alone): 128 µg/mL
Meropenem MIC in combination ([2]; with compound A): 2 µg/mL
MIC ([3]; strain 18-W09-093): 256 µg/mL
MIC ([3]; strain 18-W37-025): 128 µg/mL
MIC ([3]; strain 18-W37-032): 128 µg/mL
Meropenem MIC in combination ([3]; strain 18-W09-093): 2 µg/mL
Meropenem MIC in combination ([3]; strain 18-W37-025): 1 µg/mL
Meropenem MIC in combination ([3]; strain 18-W37-032): 4 µg/mL
MIC [4]: > 64 µg/mL
SMILES: C[C@@H](O)[C@H]1C(=O)N2C(C(=O)O)=C(S[C@@H]3CN[C@H](C(=O)N(C)C)C3)[C@H](C)[C@H]12 [Meropenem, reference compound]
